Data reported in ChEMBL document CHEMBL1130557, “Synthesis and biological evaluation of 14-alkoxymorphinans. 14.1 14-ethoxy-5-methyl substituted indolomorphinans with opioid receptor selectivity” (Bioorg Med Chem Lett, 1997).

Tests used:
[1] = target: Kappa-type opioid receptor (Rattus norvegicus, UniProt P34975); assay: Compound was evaluated for the binding affinity towards Opioid receptor kappa 1 in rat brain homogenates using [3H]U-69593 as radioligand; format: tissue-based
[2] = target: Mu-type opioid receptor (Rattus norvegicus, UniProt P33535); assay: Compound was evaluated for the binding affinity towards mu opioid receptor in rat brain homogenates using [3H]DAMGO as radioligand; format: tissue-based
Mu-type opioid receptor, sequence (P33535 whole entry): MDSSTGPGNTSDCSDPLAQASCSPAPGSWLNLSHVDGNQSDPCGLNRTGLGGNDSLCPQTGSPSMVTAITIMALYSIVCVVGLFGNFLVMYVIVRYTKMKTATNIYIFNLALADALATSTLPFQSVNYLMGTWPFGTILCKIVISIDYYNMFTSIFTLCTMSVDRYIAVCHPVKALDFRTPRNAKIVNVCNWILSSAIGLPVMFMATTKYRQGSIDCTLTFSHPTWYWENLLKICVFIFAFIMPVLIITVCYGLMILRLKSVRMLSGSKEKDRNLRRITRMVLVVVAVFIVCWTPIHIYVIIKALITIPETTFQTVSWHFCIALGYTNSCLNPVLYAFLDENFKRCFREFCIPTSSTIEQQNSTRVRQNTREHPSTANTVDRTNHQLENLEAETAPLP

[3] = target: T1, Delta-type opioid receptor (Rattus norvegicus, UniProt P33533); assay: Compound was evaluated for the binding affinity towards Opioid receptor delta 1 in rat brain homogenates using [3H]DIDI as radioligand; format: tissue-based
T1 sequence (P33533 whole entry): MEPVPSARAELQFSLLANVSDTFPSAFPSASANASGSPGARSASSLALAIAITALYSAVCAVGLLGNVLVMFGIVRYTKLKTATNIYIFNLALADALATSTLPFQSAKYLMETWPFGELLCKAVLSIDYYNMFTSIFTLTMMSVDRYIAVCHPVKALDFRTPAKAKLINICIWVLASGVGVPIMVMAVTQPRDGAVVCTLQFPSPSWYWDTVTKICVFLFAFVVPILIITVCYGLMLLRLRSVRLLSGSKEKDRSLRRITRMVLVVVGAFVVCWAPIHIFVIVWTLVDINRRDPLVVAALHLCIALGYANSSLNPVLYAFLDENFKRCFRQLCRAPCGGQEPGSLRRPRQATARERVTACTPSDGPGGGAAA

[4] = organism: Cavia porcellus; assay: Compound was evaluated for the percent inhibition of twitch height at 10 uM concentration in guinea pig ileum assay; format: functional
[5] = target: T1, Delta-type opioid receptor; assay: Compound was evaluated for the binding affinity towards Opioid receptor delta 1 in rat brain homogenates using [3H]naltrindole as radioligand; format: tissue-based
[6] = organism: Cavia porcellus; assay: Compound was evaluated for the percent inhibition of electrically evoked twitch height at 10 uM concentration in guinea pig ileum (GPI); format: functional
[7] = target: Kappa-type opioid receptor (Mus musculus) (UniProt P33534)
Kappa-type opioid receptor (Mus musculus), sequence (P33534 whole entry): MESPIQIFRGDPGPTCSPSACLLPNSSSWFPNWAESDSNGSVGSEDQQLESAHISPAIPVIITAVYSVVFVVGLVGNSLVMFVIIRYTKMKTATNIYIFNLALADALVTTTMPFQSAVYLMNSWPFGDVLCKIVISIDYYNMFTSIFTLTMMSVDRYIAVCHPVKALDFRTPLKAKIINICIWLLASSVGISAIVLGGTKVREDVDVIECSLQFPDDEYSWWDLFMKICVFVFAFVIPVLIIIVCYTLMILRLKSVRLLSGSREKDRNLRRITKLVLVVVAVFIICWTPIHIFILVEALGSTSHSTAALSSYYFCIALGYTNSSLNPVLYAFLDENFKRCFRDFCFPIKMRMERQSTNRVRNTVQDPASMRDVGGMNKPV
Description: Tested for antagonist activity against Opioid receptor kappa 1 in mouse vas deferens preparation by using C1977 as antagonist

[8] = organism: Mus musculus; assay: Compound was evaluated for the percent inhibition of electrically evoked twitch height at 10 uM concentration in mouse vas deferens (MVD); format: functional

Kappa-type opioid receptor, sequence (P34975 whole entry): as the sequence (P33534 whole entry) above, with D11E, S17A, S51P, A308V counted along it

Structure (SMILES): CCO[C@@]12Cc3c([nH]c4ccccc34)[C@]3(C)Oc4c(O)ccc5c4[C@@]31CCN(C)[C@@H]2C5
- Ki [1]: 286 nM
- Ki [2]: 715 nM
- Ki [3]: 8.81 nM
- inhibition at 10 µM [4]: 21%
- Ki [5]: 5.75 nM

Structure (SMILES): C=CCN1CC[C@]23c4c5ccc(O)c4O[C@@]2(C)c2[nH]c4ccccc4c2C[C@@]3(OCC)[C@H]1C5
- Ki [1]: 765 nM
- Ki [2]: 667 nM
- Ki [3]: 29.9 nM
- Ki [5]: 10.8 nM

Structure (SMILES): CCO[C@@]12Cc3c([nH]c4ccccc34)[C@]3(C)Oc4c(O)ccc5c4[C@@]31CCN(CC1CC1)C2C5
- Ki [1]: 59.2 nM
- inhibition at 10 µM [6]: 32%
- Ke [7]: 529 nM
- inhibition at 10 µM [8]: 23%
- Ki [2]: 38.7 nM
- Ki [3]: 14 nM
- Ki [5]: 0.78 nM

Structure (SMILES): Oc1ccc2c3c1O[C@H]1c4[nH]c5ccccc5c4C[C@@]4(O)[C@@H](C2)N(CC2CC2)CC[C@]314 [NALTRINDOLE]
- Ki [3]: 0.09 nM
- Ki [5]: 0.33 nM
